Experimental findings from patent US12060349B2, “Glucosylceramide synthase inhibitors” (Genzyme Corporation, priority 2012, dated 2024) are described below.

Like-named read-outs stand apart in the source and are kept apart here.

One test has as its system B16 mouse melanoma cells. The experiment in a line: cell viability in the B16 cell-based assay (Viability, B16 IC50). The settings on record: Mus musculus. The method, boiled down:
(§1)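 Viability readouts were run alongside the GM3 cell-surface assay in the same B16 and C32 cultures. A figure above 10 indicates no cell death.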

In test [1] the test system is GM3 expression on the cell surface, C32 human melanoma cells. In words: cell based phenotypic assay, cell surface GM3 by antibody mediated immunofluorescence, C32 (GM3 C32 IC50). The following applies: Homo sapiens, 50% inhibition of GM3 expression on the cell surface. The essentials:
(§2)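 B16 mouse and C32 human melanoma cells; cell-surface GM3 measured by antibody-mediated immunofluorescence, giving IC50.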

In test [2] the target is T1, glucosylceramide synthase (Homo sapiens, UniProt Q16739).
T1 construct: Microsomes were isolated from A375 human melanoma cells; endogenous in cells; host or cells: A375 human melanoma cells (microsomal fraction, 100,000 g pellet)
T1 sequence (Q16739 1-394): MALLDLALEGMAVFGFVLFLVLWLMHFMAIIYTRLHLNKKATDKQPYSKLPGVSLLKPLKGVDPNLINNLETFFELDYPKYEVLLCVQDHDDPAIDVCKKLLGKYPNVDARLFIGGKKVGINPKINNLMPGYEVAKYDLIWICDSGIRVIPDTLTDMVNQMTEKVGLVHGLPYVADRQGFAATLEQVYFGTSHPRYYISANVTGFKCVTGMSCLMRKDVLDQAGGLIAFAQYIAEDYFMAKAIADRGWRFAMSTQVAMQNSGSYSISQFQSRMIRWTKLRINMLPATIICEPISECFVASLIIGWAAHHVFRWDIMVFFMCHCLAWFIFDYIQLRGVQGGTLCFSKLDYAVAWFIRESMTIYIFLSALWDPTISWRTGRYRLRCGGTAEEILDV
The experiment in a line: microsomal assay measuring conversion of ceramide to glucosylceramide by HPLC (GCS IC50). The class given is biochemical. The settings on record: concentration causing 50% inhibition of glucosylceramide synthase activity. The method, boiled down:
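IC50 is the compound concentration halving glucosylceramide synthase activity. Activity was measured in microsomes, with HPLC quantifying glucosylceramide formed from ceramide.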

Test [3] deals with GM3 expression on the cell surface, B16 mouse melanoma cells. In words: cell based phenotypic assay, cell surface GM3 by antibody mediated immunofluorescence, B16 (GM3 B16 IC50). The settings on record: Mus musculus, 50% inhibition of GM3 expression on the cell surface. The essentials: as §2
The next test relates to C32 human melanoma cells. The experiment in a line: cell viability in the C32 cell-based assay (Viability, C32 IC50). The following applies: Homo sapiens, concentration causing 50% cell death, values greater than 10 represent a lack of cell death. The method, boiled down: as §1
Where [4] appears, read: B16, B16 cells, concentration causing 50% cell death, values greater than 10 represent a lack of cell death, read-out: Viability, B16 IC50.
Setting [5] is: C32 human melanoma cells, read-out: GM3 C32 IC50.
Setting [6] is: B16 mouse melanoma cells, read-out: GM3 B16 IC50.
The mark [7] stands for this setting: C32, C32 cells, read-out: Viability, C32 IC50.
Setting [8] is: B16, read-out: Viability, B16 IC50.
The mark [9] stands for this setting: read-out: GM3 C32 IC50, C32 human melanoma cells.
Where [10] appears, read: read-out: GM3 B16 IC50, B16 mouse melanoma cells.
The mark [11] stands for this setting: C32, read-out: Viability, C32 IC50, C32 cells.

For the compound `COCCOc1ccc(-c2ccc(C(C)(C)NC(=O)N3CCN4CCC3CC4)cc2)cc1` [Example 161, N-(2-(4′-(2-Methoxyethoxy)-[1,1′-biphenyl]-4-yl)propan-2-yl)-1,4-diazabicyclo[3.2.2]nonane-4-carboxamide], the IC50 came out at 3160 nM in the test on B16 mouse melanoma cells (setting [4]); 32.7 nM in test [1] (setting [5]); 250 nM in test [2]; 311 nM in test [3] (setting [6]); 3160 nM in the test with C32 human melanoma cells (setting [7]).

Regarding `COCCOc1ccc(-c2ccc(C3(NC(=O)NC4CN5CCC4CC5)CC3)cc2)cc1` (stereo not drawn) [Example 162, 1-(1-(4′-(2-Methoxyethoxy)-[1,1′-biphenyl]-4-yl)cyclopropyl)-3-(quinuclidin-3-yl)urea], the IC50 in the test on B16 mouse melanoma cells (setting [4]) was found to be 3540 nM; in test [1] (setting [5]), 2.21 nM; in test [2] it was 28.1 nM; in test [3] (setting [6]), 72.7 nM; in the test on C32 human melanoma cells (setting [7]) it was 1000 nM.

With `COCCOc1ccc(-c2ccc(C3(NC(=O)NC4(C)CN5CCC4CC5)CC3)cc2)cc1` (stereo not drawn) [Example 163, 1-(1-(4′-(2-Methoxyethoxy)-[1,1′-biphenyl]-4-yl)cyclopropyl)-3-(3-methylquinuclidin-3-yl)urea], the 50% inhibitory concentration (IC50) in the test on B16 mouse melanoma cells (setting [4]) stood at 1000 nM; in test [1] (setting [5]), 0.539 nM; in test [2], 8.49 nM; in test [3] (setting [6]), 6.57 nM; with C32 human melanoma cells (setting [7]), 173 nM.

As to `CCC1(NC(=O)NC2(c3ccc(-c4ccc(OCCOC)cc4)cc3)CC2)CN2CCC1CC2` (stereo not drawn) [Example 164, 1-(3-Ethylquinuclidin-3-yl)-3-(1-(4′-(2-methoxyethoxy)-[1,1′-biphenyl]-4-yl)cyclopropyl)urea], the half-inhibitory concentration (IC50) with B16 mouse melanoma cells (setting [4]) worked out at 1000 nM; in test [1] (setting [5]), 0.205 nM; in test [2], 6.16 nM; in test [3] (setting [6]) it was 2.51 nM; with C32 human melanoma cells (setting [7]), 173 nM.

On to `COCCOc1ccc(-c2ccc(C3(NC(=O)NC4(C)CCN5CCC4CC5)CC3)cc2)cc1` (stereo not drawn) [Example 165, 1-(1-(4′-(2-Methoxyethoxy)-[1,1′-biphenyl]-4-yl)cyclopropyl)-3-(4-methyl-1-azabicyclo[3.2.2]nonan-4-yl)urea], for which the IC50 was determined as 316 nM in the test with B16 mouse melanoma cells (setting [4]); 0.24 nM in test [1] (setting [5]); 4.15 nM in test [2]; 0.516 nM in test [3] (setting [6]); 31.6 nM in the test with C32 human melanoma cells (setting [7]).

Turning to `COCCOc1ccc(-c2ccc(C3(NC(=O)OC4CN5CCC4CC5)CC3)cc2)cc1` (stereo not drawn) [Example 166, Quinuclidin-3-yl (1-(4′-(2-methoxyethoxy)-[1,1′-biphenyl]-4-yl)cyclopropyl)carbamate], the IC50 in the test on B16 mouse melanoma cells (setting [8]) turned out to be 316 nM; in test [1] (setting [9]), 1.81 nM; in test [2] it was 5.69 nM; in test [3] (setting [10]) it was 21.9 nM; with C32 human melanoma cells (setting [11]), 215 nM.

For the compound `COCCOc1cccc(-c2ccc(C(C)(C)NC(=O)OC3CN4CCC3CC4)cc2)c1` (stereo not drawn) [Example 167, Quinuclidin-3-yl (2-(3′-(2-methoxyethoxy)-[1,1′-biphenyl]-4-yl)propan-2-yl)carbamate], the IC50 in the test with B16 mouse melanoma cells (setting [8]) is at least 10000 nM; in test [1] (setting [9]), 5.31 nM; in test [2] it was 10.4 nM; in test [3] (setting [10]) it was 109 nM; in the test on C32 human melanoma cells (setting [11]) it was 1000 nM.

Take `COCCOc1cccc(-c2ccc(C(C)(C)NC(=O)OC3CCN4CCC3CC4)cc2)c1` (stereo not drawn) [Example 168, 1-Azabicyclo[3.2.2]nonan-4-yl (2-(3′-(2-methoxyethoxy)-[1,1′-biphenyl]-4-yl)propan-2-yl)carbamate]: the IC50 with B16 mouse melanoma cells (setting [4]) is at least 10000 nM; in test [1] (setting [5]), 3.34 nM; in test [2], 5.56 nM; in test [3] (setting [6]), 79.3 nM; in the test on C32 human melanoma cells (setting [7]), 1000 nM.

Turning to `COCCOc1cccc(-c2ccc(C(C)(C)NC(=O)N3CCN4CCC3CC4)cc2)c1` [Example 169, N-(2-(3′-(2-Methoxyethoxy)-[1,1′-biphenyl]-4-yl)propan-2-yl)-1,4-diazabicyclo[3.2.2]nonane-4-carboxamide], the IC50 was at least 10000 nM in the test on B16 mouse melanoma cells (setting [4]); 18 nM in test [1] (setting [5]); 257 nM in test [2]; 283 nM in test [3] (setting [6]); 1000 nM with C32 human melanoma cells (setting [7]).

Regarding `COCCOc1ccc(-c2cccc(C(C)(C)NC(=O)OC3CN4CCC3CC4)c2)cc1` (stereo not drawn) [Example 170, Quinuclidin-3-yl (2-(4′-(2-methoxyethoxy)-[1,1′-biphenyl]-3-yl)propan-2-yl)carbamate], the IC50 is at least 10000 nM with B16 mouse melanoma cells (setting [8]); 4.94 nM in test [1] (setting [9]); 26.7 nM in test [2]; 29.5 nM in test [3] (setting [10]); at least 10000 nM with C32 human melanoma cells (setting [11]).

On to `COCCOc1ccc(-c2cccc(C(C)(C)NC(=O)OC3CCN4CCC3CC4)c2)cc1` (stereo not drawn) [Example 171, 1-Azabicyclo[3.2.2]nonan-4-yl (2-(4′-(2-methoxyethoxy)-[1,1′-biphenyl]-3-yl)propan-2-yl)carbamate], for which the IC50 in the test on B16 mouse melanoma cells (setting [4]) is 74.6 nM; in test [1] (setting [5]), 1.45 nM; in test [2] it was 32.5 nM; in test [3] (setting [6]) it was 11.9 nM; with C32 human melanoma cells (setting [7]) it was 3980 nM.

For the compound `COCCCOc1ccc(-c2ccc(C(C)(C)NC(=O)OC3CN4CCC3CC4)cc2)cc1` (stereo not drawn) [Example 172, Quinuclidin-3-yl (2-(4′-(3-methoxypropoxy)-[1,1′-biphenyl]-4-yl)propan-2-yl)carbamate], the IC50 was 8290 nM with B16 mouse melanoma cells (setting [8]); 1.56 nM in test [1] (setting [9]); 2.41 nM in test [2]; 66.6 nM in test [3] (setting [10]); at least 10000 nM in the test with C32 human melanoma cells (setting [11]).

Take `COCCCOc1ccc(-c2ccc(C(C)(C)NC(=O)NC3(C)CN4CCC3CC4)cc2)cc1` (stereo not drawn) [Example 173, 1-(2-(4′-(3-Methoxypropoxy)-[1,1′-biphenyl]-4-yl)propan-2-yl)-3-(3-methylquinuclidin-3-yl)urea]: the IC50 is at least 10000 nM in the test on B16 mouse melanoma cells (setting [4]); 0.766 nM in test [1] (setting [5]); 1.98 nM in test [2]; 20.3 nM in test [3] (setting [6]); at least 10000 nM in the test with C32 human melanoma cells (setting [7]).

As to `COCCCOc1ccc(-c2ccc(C(C)(C)NC(=O)N3CCN4CCC3CC4)cc2)cc1` [Example 174, N-(2-(4′-(3-Methoxypropoxy)-[1,1′-biphenyl]-4-yl)propan-2-yl)-1,4-diazabicyclo[3.2.2]nonane-4-carboxamide], the IC50 in the test on B16 mouse melanoma cells (setting [4]) was at least 10000 nM; in test [1] (setting [5]), 22.5 nM; in test [2], 134 nM; in test [3] (setting [6]), 386 nM; in the test with C32 human melanoma cells (setting [7]), 1000 nM.

For the compound `COCCCOc1ccc(-c2ccc(C3(NC(=O)NC4(C)CN5CCC4CC5)CC3)cc2)cc1` (stereo not drawn) [Example 176, 1-(1-(4′-(3-Methoxypropoxy)-[1,1′-biphenyl]-4-yl)cyclopropyl)-3-(3-methylquinuclidin-3-yl)urea], the IC50 in the test with B16 mouse melanoma cells (setting [4]) is at least 10000 nM; in test [1] (setting [5]), 1.47 nM; in test [2], 4.1 nM; in test [3] (setting [6]) it was 22 nM; with C32 human melanoma cells (setting [7]), at least 10000 nM.

`COCCCOc1ccc(-c2ccc(C3(NC(=O)NC4(C)CCN5CCC4CC5)CC3)cc2)cc1` (stereo not drawn) [Example 177, 1-(1-(4′-(3-Methoxypropoxy)-[1,1′-biphenyl]-4-yl)cyclopropyl)-3-(4-methyl-1-azabicyclo[3.2.2]nonan-4-yl)urea]: the IC50 in the test with B16 mouse melanoma cells (setting [4]) was at least 10000 nM; in test [1] (setting [5]) it was 0.497 nM; in test [2] it was 1.59 nM; in test [3] (setting [6]) it was 1.75 nM; with C32 human melanoma cells (setting [7]), at least 10000 nM.

For the compound `COCCCOc1ccc(-c2ccc(C3(NC(=O)OC4CCN5CCC4CC5)CC3)cc2)cc1` (stereo not drawn) [Example 178, 1-Azabicyclo[3.2.2]nonan-4-yl (1-(4′-(3-methoxypropoxy)-[1,1′-biphenyl]-4-yl)cyclopropyl)carbamate], the IC50 in the test on B16 mouse melanoma cells (setting [4]) was at least 10000 nM; in test [1] (setting [5]), 2.61 nM; in test [2], 3.54 nM; in test [3] (setting [6]), 67.9 nM; in the test with C32 human melanoma cells (setting [7]), 7100 nM.

For `CC(C)(NC(=O)OC1CN2CCC1CC2)c1ccc(-c2ccc(OCCn3cccn3)cc2)cc1` (stereo not drawn) [Example 179, Quinuclidin-3-yl (2-(4′-(2-(1H-pyrazol-1-yl)ethoxy)-[1,1′-biphenyl]-4-yl)propan-2-yl)carbamate], the IC50 with B16 mouse melanoma cells (setting [8]) came out at 8730 nM; in test [1] (setting [9]), 4.99 nM; in test [2], 6.73 nM; in test [3] (setting [10]), 95.2 nM; in the test with C32 human melanoma cells (setting [11]), 3160 nM.
